Common to all, as to assay: growth of human tumour cells (NCI), 48 h
In assay [1] the test system is SR.
Assay [2] relates to A498.
Assay [3] relates to SF-295.
Assay [4] relates to HOP-62.
Assay [5] relates to HT-29.
Assay [6] relates to OVCAR-8.
The subject of assay [7] is SW-620.
The subject of assay [8] is HOP-92.
Assay [9] concerns OVCAR-3.
Assay [10] deals with 786-0.
Assay [11] concerns CCRF-CEM.
Assay [12] relates to Malme-3M.
Assay [13] concerns LOX IMVI.
For assay [14], the system named is MOLT-4.
For assay [15], the system named is EKVX.
Assay [16] relates to SN12C.
Assay [17] relates to HL-60.
Assay [18] has as its system HCT-15.
For assay [19], the system named is T47D.

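All cell lines were grown in 96-well plates and treated with compound for 48 hours. GI50 is the concentration that inhibits growth by half.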 Activity calls are given as the source filed them. Cut-off read from the data, not from the text of the source: active = GI50 up to about 1.1 µM and inactive = higher. A value given as a limit tells only on which side of the number the result lay.

With `CC(=O)Oc1ccccc1C(=O)C1c2cccc(O)c2C(=O)c2c(O)cccc21`, the GI50 in assay [1] is 0.419 µM (active); in assay [2], 1.8 µM (inactive); in assay [3], 0.682 µM (active); in assay [4], 1.44 µM (inactive); in assay [5] it was 2.59 µM (inactive); in [6], 1.23 µM (inactive). Besides, the GI50 in assay [7] is 0.445 µM (active); in [8], 1.18 µM (inactive); in assay [9] it was 0.593 µM (active); in [10], 1.67 µM (inactive); in [11], 0.306 µM (active); in assay [12] it was 1.95 µM (inactive). Also, the GI50 in assay [13] was 1.62 µM (inactive); in [14], 1.46 µM (inactive); in assay [15] it was 2.18 µM (inactive); in assay [16], 2.3 µM (inactive); in [17], 0.222 µM (active); in assay [18], 1.08 µM.

Regarding `CCc1cccc(CC)c1NC(=O)C1=C(C)NC(C)=C(C(=O)Nc2c(CC)cccc2CC)C1c1ccc2c(c1)OCO2`, the GI50 in assay [1] is 3.66 µM (inactive); in [2] it was 21.7 µM (inactive); in assay [3] it was 13.9 µM (inactive); in assay [4], 19.2 µM (inactive); in assay [5], 15.9 µM (inactive); in assay [6], 18.5 µM (inactive). Besides, the GI50 in assay [7] is 17 µM (inactive); in [8] it was 14 µM (inactive); in assay [9], 13.9 µM (inactive); in [10] it was 16.4 µM (inactive); in assay [11] it was 5.93 µM (inactive); in [12] it was 14.9 µM (inactive). Besides, the GI50 is 12.7 µM (inactive) in assay [13]; 56.8 µM (inactive) in assay [14]; 19.9 µM (inactive) in [15]; 15.3 µM (inactive) in [16]; 8 µM (inactive) in [17]; 12.4 µM in assay [18].

Turning to `N#CC(C#N)=CNC(=S)Nc1ccc(S(=O)(=O)Nc2nccs2)cc1`, the GI50 in assay [2], in [3], in [4], in assay [5], in assay [6] and in [7] was > 100 µM (inactive) in each case. The GI50 in [8], in assay [9], in assay [10], in assay [13], in assay [14] and in assay [15] was > 100 µM (inactive) each time. Besides, the GI50 in assay [19] is > 100 µM (inactive); in [16] it was > 100 µM (inactive); in [17], > 100 µM (inactive); in assay [18], greater than 100 µM.

Regarding `NN/C(=N\S(=O)(=O)c1cc(Cl)c(Oc2ccc([N+](=O)[O-])cc2Cl)c(Cl)c1)Nc1ccc(Cl)cc1`, the GI50 in [1] was 16.6 µM (inactive); in [2], 22.8 µM (inactive); in assay [3], 20.4 µM (inactive); in assay [4] it was 18.4 µM (inactive); in [5] it was 19.1 µM (inactive); in assay [6], 24.2 µM (inactive). The GI50 is 28.7 µM (inactive) in assay [7]; 19.9 µM (inactive) in assay [8]; 15.9 µM (inactive) in assay [9]; 18.2 µM (inactive) in assay [10]; 10.8 µM (inactive) in assay [11]; 21.8 µM (inactive) in assay [12]. Besides, the GI50 was 21 µM (inactive) in [13]; 19.1 µM (inactive) in assay [14]; 21.8 µM (inactive) in [15]; 19.8 µM (inactive) in [19]; 17.4 µM (inactive) in [16]; 19.2 µM in [18].

In the case of `N#Cc1c(Cl)cccc1Oc1ccc(S(=O)(=O)/N=C(\NN)Nc2ccc(Cl)cc2)cc1`, the GI50 in assay [1] is 0.0177 µM (active); in [2], 32.4 µM (inactive); in assay [3] it was 24.2 µM (inactive); in assay [4], 21.1 µM (inactive); in [5], 30.3 µM (inactive); in [6], 31.2 µM (inactive). Also, the GI50 in assay [7] is 41.9 µM (inactive); in assay [8], 21.2 µM (inactive); in assay [9], 19.7 µM (inactive); in assay [10] it was 23.8 µM (inactive); in assay [13] it was 17.5 µM (inactive); in [14] it was 14.6 µM (inactive). In addition, the GI50 was 23.3 µM (inactive) in [15]; 20.1 µM (inactive) in [19]; 25.2 µM (inactive) in [16]; 21.5 µM (inactive) in [17]; 34.4 µM in assay [18].

Take `CCC(C)N1CN(c2ccccc2)C2(CCN(CC3COc4ccccc4O3)CC2)C1=O` (configuration not stated): the GI50 in assay [1] was 17.9 µM (inactive); in [3], 19 µM (inactive); in assay [4], 19.4 µM (inactive); in [5], 13.1 µM (inactive); in assay [6] it was 26.2 µM (inactive); in [7], 22.3 µM (inactive). For the same molecule, the GI50 in [9] was 15.7 µM (inactive); in assay [10], 18 µM (inactive); in assay [11] it was 19.9 µM (inactive); in [12] it was 18.5 µM (inactive); in [13], 23.4 µM (inactive); in [14], 16.1 µM (inactive). Besides, the GI50 was 14.9 µM (inactive) in assay [15]; 16 µM (inactive) in assay [19]; 27.7 µM (inactive) in [16]; 14.4 µM (inactive) in assay [17]; 19.7 µM in [18].

Take `Cc1c2ccccc2c(C2C3C(=O)N(c4ccc(Br)cc4)C(=O)C3ON2C(C(N)=O)c2ccccc2)c2ccccc12` (configuration not stated): the GI50 in assay [2] was 2.98 µM (inactive); in [3], 6.59 µM (inactive); in assay [4] it was 8.99 µM (inactive); in assay [5] it was 2.58 µM (inactive); in [6] it was 6.78 µM (inactive); in assay [7], 3.98 µM (inactive). Moreover, the GI50 in [8] is 9.4 µM (inactive); in [9], 3.01 µM (inactive); in assay [10], 5.5 µM (inactive); in assay [11], 3.18 µM (inactive); in assay [12], 3.78 µM (inactive); in assay [13] it was 4.97 µM (inactive). In addition, the GI50 is 4.05 µM (inactive) in assay [14]; 5.28 µM (inactive) in assay [15]; 3.18 µM (inactive) in assay [19]; 5.3 µM (inactive) in assay [16]; 3.81 µM (inactive) in assay [17]; 3.88 µM in [18].

Turning to `CC(C)(C)NNC(=O)/C(=C/c1ccc([N+](=O)[O-])cc1)NC(=O)c1ccccc1`, the GI50 in assay [1] was 21.6 µM (inactive); in assay [2], > 100 µM (inactive); in [3] it was > 100 µM (inactive); in [4] it was > 100 µM (inactive); in assay [5], > 100 µM (inactive); in assay [6] it was > 100 µM (inactive). For the same molecule, the GI50 was > 100 µM (inactive) in assay [8]; > 100 µM (inactive) in assay [9]; 48.5 µM (inactive) in assay [10]; 31.3 µM (inactive) in [11]; > 100 µM (inactive) in assay [12]; 17.2 µM (inactive) in [13]. In addition, the GI50 in assay [14] was 41.3 µM (inactive); in [15] it was > 100 µM (inactive); in [16], > 100 µM (inactive); in [17], 44.8 µM (inactive); in assay [18] it was greater than 100 µM.

As for `COC(=O)C1=C(O)C(O)=C(C(=O)OC)CC1`, the GI50 in assay [1], in [2], in assay [3], in assay [4], in assay [5] and in assay [6] was > 100 µM (inactive) in each case. The GI50 in [7], in assay [8], in [9], in assay [10], in [11] and in assay [12] was > 100 µM (inactive) in each case. The GI50 is > 100 µM (inactive) in assay [13]; > 100 µM (inactive) in assay [14]; > 100 µM (inactive) in assay [15]; > 100 µM (inactive) in assay [16]; > 100 µM (inactive) in assay [17]; greater than 100 µM in [18].

In the case of `Cc1ccc2c3c1O[C@H]1c4[nH]c5ccccc5c4C[C@@]4(O)[C@@H](C2)N(CC2CC2)CC[C@]314`, the GI50 in assay [1] was 8.89 µM (inactive); in assay [2] it was 17.1 µM (inactive); in assay [3], 17.4 µM (inactive); in [4] it was 19.2 µM (inactive); in assay [5] it was 4.42 µM (inactive); in [6], 15.3 µM (inactive). In addition, the GI50 was 10.9 µM (inactive) in assay [7]; 13 µM (inactive) in [8]; 14.4 µM (inactive) in assay [9]; 13.8 µM (inactive) in assay [10]; 2.78 µM (inactive) in assay [11]; 14.5 µM (inactive) in assay [12]. Further, the GI50 was 15.9 µM (inactive) in assay [13]; 12.2 µM (inactive) in assay [14]; 17.4 µM (inactive) in [15]; 17.6 µM (inactive) in assay [19]; 15.3 µM (inactive) in assay [16]; 5.3 µM (inactive) in assay [17]. The molecule also showed a GI50 in [18] of 12.7 µM.

As for `C=C(C)[C@@H]1C[C@H]2O[C@](O)(C(=C)CC(=O)/C=C(/C)C[C@@H]3OC(=O)[C@]24O[C@@H]34)[C@H]1O`, the GI50 in assay [1], in assay [2], in assay [3], in assay [4], in [5] and in assay [6] was > 100 µM (inactive) throughout. Also, the GI50 in [7], in assay [10], in assay [11], in [12], in assay [13] and in [14] was > 100 µM (inactive) each time. For the same molecule, the GI50 in assay [15] is > 100 µM (inactive); in assay [19], > 100 µM (inactive); in assay [16] it was > 100 µM (inactive); in [18] it was greater than 100 µM.

The record behind these values is ChEMBL document CHEMBL1201862, “PubChem BioAssay data set” (2004).
